These results are taken from ChEMBL document CHEMBL1150988, “-lactam-recognizing enzymes exhibit different structural specificity in acyclic amide and ester substrates: a starting point in -lactamase evolution?” (Bioorg Med Chem Lett, 1994).

The Km is the concentration of substrate that gives half-maximal velocity.

SMILES strings stand for the structures. Several values for one entry are separate records, joined by “and”; a condition that tells them apart may be missing. Identical values can stand only once.

The test system of experiment [1] is Streptomyces. Put plainly: Km against Streptomyces R61 DD-peptidase.
The nature of experiment [2]: Ratio for Kcat to Km against Streptomyces R61 DD-peptidase. Also on record: unit not given here.
Experiment [3] relates to Streptomyces. Nature of the experiment: Kcat against Streptomyces R61 DD-peptidase.
A short description of experiment [4]: Ratio for Kcat to Km was determined. More on the design: unit not given here.
Experiment [5] has as its target Beta-lactamase (Enterobacter cloacae) (UniProt P05364). Put plainly: Kcat against P99 beta-lactamase.

Sequence of Beta-lactamase (Enterobacter cloacae) (P05364 21-381 limits assumed): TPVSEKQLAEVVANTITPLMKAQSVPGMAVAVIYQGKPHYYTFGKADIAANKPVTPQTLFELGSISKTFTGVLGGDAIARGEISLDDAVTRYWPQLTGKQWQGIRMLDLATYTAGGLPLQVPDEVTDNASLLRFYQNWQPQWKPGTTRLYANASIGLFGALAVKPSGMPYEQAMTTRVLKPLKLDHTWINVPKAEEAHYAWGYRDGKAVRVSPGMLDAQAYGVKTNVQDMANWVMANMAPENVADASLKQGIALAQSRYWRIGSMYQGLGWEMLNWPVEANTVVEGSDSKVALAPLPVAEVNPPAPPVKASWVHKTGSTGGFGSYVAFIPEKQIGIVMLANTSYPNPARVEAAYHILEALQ

`CC(=O)NCCCC[C@H](NC(C)=O)C(=O)NCC(=O)N[C@H](C)C(=O)O`: in experiment [1], the Km came out at 15 mM. Besides, in experiment [2], the Ratio was 1.3. Also, the k cat in experiment [3] was 0.019 s⁻¹.
For the molecule `C[C@@H](OC(=O)CNC(=O)Cc1ccccc1)C(=O)O`, the Ratio in experiment [4] was determined as 3390; in experiment [2] it was 366. Moreover, the Michaelis-Menten constant (Km) in experiment [1] was 11.8 mM. Besides, the k cat in experiment [5] came to 27.3 s⁻¹; in experiment [3] it was 4.3 s⁻¹.
`CC(=O)NCCCC[C@H](NC(C)=O)C(=O)NCC(=O)O[C@H](C)C(=O)O`: the Ratio is 493 in experiment [4] and 1060 in experiment [2]. The Km in experiment [1] came to 9.8 mM. Besides, the k cat in experiment [5] turned out to be 17.8 s⁻¹; in experiment [3] it was 10.4 s⁻¹.
Regarding `CC(=O)NCCCC[C@H](NC(C)=O)C(=O)N[C@@H](C)C(=O)N[C@H](C)C(=O)O`, the Km in experiment [1] is 10 mM and 7 mM. Moreover, the Ratio in experiment [2] was 5500 and 7890. The same molecule had a k cat in experiment [3] of 55 s⁻¹.
With `C[C@H](NC(=O)Cc1ccccc1)C(=O)N[C@H](C)C(=O)O`, the Km in experiment [1] was 7 mM. The Ratio in experiment [2] worked out at 286. For the same molecule, in experiment [3], the k cat came to 2 s⁻¹.
On to `CC(=O)NCCCC[C@H](NC(C)=O)C(=O)N[C@@H](C)C(=O)O[C@H](C)C(=O)O`, for which the Ratio in experiment [4] amounted to 2340; in experiment [2], 1300. Besides, the Km in experiment [1] came out at 50.6 mM. Besides, the k cat in experiment [5] was found to be 63 s⁻¹; in experiment [3], 65.9 s⁻¹.
Take `C[C@@H](SC(=O)CNC(=O)Cc1ccccc1)C(=O)O`: the Ratio worked out at 6670 in experiment [4] and 9660 in experiment [2]. Besides, in experiment [1], the Km came out at 0.63 mM. In addition, the k cat in experiment [5] came out at 22 s⁻¹; in experiment [3], 6.1 s⁻¹.
In the same order, the values of `C[C@H](NC(=O)Cc1ccccc1)C(=O)O[C@H](C)C(=O)O` are 1240, 3630, 6.8 mM, 29 s⁻¹ and 24.6 s⁻¹.
In the case of `CC(=O)NCCCC[C@H](NC(C)=O)C(=O)NCC(=O)S[C@H](C)C(=O)O`, the Ratio in experiment [4] is 763; in experiment [2], 5850. In addition, the Km in experiment [1] was 2 mM. The k cat worked out at 5.1 s⁻¹ in experiment [5] and 11.9 s⁻¹ in experiment [3].
